Experimental data reported in US7368541B2, “Trace amine receptor 1 of the African green monkey” (Merck & Co., Inc., priority 2004, dated 2008).

Biological target: agmTA1 receptor (Chlorocebus aethiops (Cercopithecus aethiops, African green monkey), UniProt A0A0D9SAC2, I11T/L334F)
Assay: CRE-luciferase reporter functional assay in HEK293 cells transiently expressing agmTA1 receptor
Format: cell-based
Conditions: HEK293 cells transfected with pcDNA3.1-agmTA1 and pCRE-Luc; agonist 0.1 nM to 100 μM, 16 to 18 hours; luciferase activity

NCC(O)c1ccc(O)cc1 (stereo not drawn) [octopamine]
EC50: ~200 nM

NCCc1c[nH]c2ccccc12 [tryptamine]
EC50: ~940 nM

NCCc1ccc(O)cc1 [tyramine]
EC50: ~16 nM
